Results published in PubChem BioAssay AID1963965 (Molecular Pharmacology Branch, DTP, NCI, 2024).

Test system: 996289-038-R-J1-PDC spheroid viability
Assay: Anticancer human tumor 996289-038-R-J1-PDC patient-derived colon adenocarcinoma cell line growth inhibition [PI3K]
Conditions: spheroids with HUVEC and MSC; for IC50: curve of first compound; for viability, T/C: stronger effect = lower value
Summary of the method: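 Combination activity was assessed by viability in multicellular tumor spheroids carrying HUVEC and MSC components. Agents were tested with PI3K inhibitors from a Cmax-based top dose (or 10 microM) downward in half-log increments.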

[1] = second compound 0.0316 µM, first compound 0.0316 µM
[2] = second compound 0.0316 µM, first compound 0.1 µM
[3] = second compound 0.1 µM, first compound 0.0316 µM
[4] = second compound 0.1 µM, first compound 0.1 µM
[5] = second compound 0.316 µM, first compound 0.0316 µM
[6] = second compound 0.316 µM, first compound 0.1 µM
[7] = second compound 1 µM, first compound 0.0316 µM
[8] = second compound 1 µM, first compound 0.1 µM
[9] = second compound 3.16 µM, first compound 0.0316 µM
[10] = second compound 3.16 µM, first compound 0.1 µM
[11] = second compound 10 µM, first compound 0.0316 µM
[12] = second compound 10 µM, first compound 0.1 µM
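Note: spheroids exposed to compounds for seven days before viability read.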
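Throughout, for viability, T/C: luminescence used as a proxy for viable cell amount; percent viability relative to DMSO vehicle control as 100%.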

Compound `C[C@@H](NC(=O)c1ncnc(N)c1Cl)c1ncc(C(=O)Nc2cc(C(F)(F)F)c(Cl)cn2)s1` + Cc1nc(NC(=O)N2CCCC2C(N)=O)sc1-c1ccnc(C(C)(C)C(F)(F)F)c1 has an IC50 (second compound 0.0316 µM) greater than 10000 nM, an IC50 (second compound 0.1 µM) greater than 10000 nM and an IC50 (second compound 0.316 µM) greater than 10000 nM. The IC50 (second compound 1 µM) was greater than 10000 nM, the IC50 (second compound 3.16 µM) was greater than 10000 nM and the IC50 (second compound 10 µM) was less than 31.6 nM. For the same compound, the viability, T/C [1] was 89.5%, the viability, T/C [2] was 89.8% and the viability, T/C (second compound 0.0316 µM, first compound 0.316 µM) was 124%. It also gave a viability, T/C (second compound 0.0316 µM, first compound 1 µM) of 114%, a viability, T/C (second compound 0.0316 µM, first compound 3.16 µM) of 113% and a viability, T/C (second compound 0.0316 µM, first compound 10 µM) of 128%. It also gave a viability, T/C [3] of 99.3%, a viability, T/C [4] of 100% and a viability, T/C (second compound 0.1 µM, first compound 0.316 µM) of 103%. For the same compound, the viability, T/C (second compound 0.1 µM, first compound 1 µM) was 104%, the viability, T/C (second compound 0.1 µM, first compound 3.16 µM) was 109% and the viability, T/C (second compound 0.1 µM, first compound 10 µM) was 105%. For the same compound, the viability, T/C [5] was 80.5%, the viability, T/C [6] was 88.6% and the viability, T/C (second compound 0.316 µM, first compound 0.316 µM) was 90.8%. For the same compound, the viability, T/C (second compound 0.316 µM, first compound 1 µM) was 93.9%, the viability, T/C (second compound 0.316 µM, first compound 3.16 µM) was 109% and the viability, T/C (second compound 0.316 µM, first compound 10 µM) was 92.4%. It also gave a viability, T/C [7] of 64.3%, a viability, T/C [8] of 72.8% and a viability, T/C (second compound 1 µM, first compound 0.316 µM) of 73.5%. It also gave a viability, T/C (second compound 1 µM, first compound 1 µM) of 81.1%, a viability, T/C (second compound 1 µM, first compound 3.16 µM) of 102% and a viability, T/C (second compound 1 µM, first compound 10 µM) of 70.8%. For the same compound, the viability, T/C [9] was 62.1%, the viability, T/C [10] was 68.3% and the viability, T/C (second compound 3.16 µM, first compound 0.316 µM) was 60.3%. The viability, T/C (second compound 3.16 µM, first compound 1 µM) was 67.7%, the viability, T/C (second compound 3.16 µM, first compound 3.16 µM) was 68.7% and the viability, T/C (second compound 3.16 µM, first compound 10 µM) was 54.3%. It also gave a viability, T/C [11] of 40.6%, a viability, T/C [12] of 47.1% and a viability, T/C (second compound 10 µM, first compound 0.316 µM) of 54.3%. For the same compound, the viability, T/C (second compound 10 µM, first compound 1 µM) was 44.3%, the viability, T/C (second compound 10 µM, first compound 3.16 µM) was 46.9% and the viability, T/C (second compound 10 µM, first compound 10 µM) was 39.9%.
`Cn1ncnc1[C@H]1c2n[nH]c(=O)c3cc(F)cc(c23)N[C@@H]1c1ccc(F)cc1` + Cc1nc(NC(=O)N2CCCC2C(N)=O)sc1-c1ccnc(C(C)(C)C(F)(F)F)c1 showed an IC50 (second compound 0.0316 µM) greater than 100 nM, an IC50 (second compound 0.1 µM) greater than 100 nM and an IC50 (second compound 0.316 µM) greater than 100 nM. For the same compound, the IC50 (second compound 1 µM) was greater than 100 nM, the IC50 (second compound 3.16 µM) was greater than 100 nM and the IC50 (second compound 10 µM) was less than 0.316 nM. It also gave a viability, T/C (second compound 0.0316 µM, first compound 0.000316 µM) of 120%, a viability, T/C (second compound 0.0316 µM, first compound 0.001 µM) of 117% and a viability, T/C (second compound 0.0316 µM, first compound 0.00316 µM) of 97.9%. It also gave a viability, T/C (second compound 0.0316 µM, first compound 0.01 µM) of 90.3%, a viability, T/C [1] of 99.9% and a viability, T/C [2] of 99%. It also gave a viability, T/C (second compound 0.1 µM, first compound 0.000316 µM) of 113%, a viability, T/C (second compound 0.1 µM, first compound 0.001 µM) of 101% and a viability, T/C (second compound 0.1 µM, first compound 0.00316 µM) of 79.5%. For the same compound, the viability, T/C (second compound 0.1 µM, first compound 0.01 µM) was 84.9%, the viability, T/C [3] was 91.2% and the viability, T/C [4] was 83.2%. It also gave a viability, T/C (second compound 0.316 µM, first compound 0.000316 µM) of 88.3%, a viability, T/C (second compound 0.316 µM, first compound 0.001 µM) of 85% and a viability, T/C (second compound 0.316 µM, first compound 0.00316 µM) of 84.1%. For the same compound, the viability, T/C (second compound 0.316 µM, first compound 0.01 µM) was 89.8%, the viability, T/C [5] was 90.8% and the viability, T/C [6] was 77.3%. The viability, T/C (second compound 1 µM, first compound 0.000316 µM) was 76.6%, the viability, T/C (second compound 1 µM, first compound 0.001 µM) was 70.9% and the viability, T/C (second compound 1 µM, first compound 0.00316 µM) was 78.5%. The viability, T/C (second compound 1 µM, first compound 0.01 µM) was 77.9%, the viability, T/C [7] was 76.7% and the viability, T/C [8] was 68.3%. The viability, T/C (second compound 3.16 µM, first compound 0.000316 µM) was 53.7%, the viability, T/C (second compound 3.16 µM, first compound 0.001 µM) was 69.4% and the viability, T/C (second compound 3.16 µM, first compound 0.00316 µM) was 64%. The viability, T/C (second compound 3.16 µM, first compound 0.01 µM) was 61.1%, the viability, T/C [9] was 62% and the viability, T/C [10] was 58.4%. The viability, T/C (second compound 10 µM, first compound 0.000316 µM) was 42.5%, the viability, T/C (second compound 10 µM, first compound 0.001 µM) was 51.5% and the viability, T/C (second compound 10 µM, first compound 0.00316 µM) was 49.5%. For the same compound, the viability, T/C (second compound 10 µM, first compound 0.01 µM) was 44.2%, the viability, T/C [11] was 55.1% and the viability, T/C [12] was 40.8%.
